Laboratory results: US11470793B2, “Bacterial strain having anti-fungal properties and uses thereof” (Kontzamanis Graumann Smith MacMillan Inc., priority 2019, dated 2022)

Test system: F. graminearum 3ADON (high toxin producing strain)
Format: cell-based, Fusarium graminearum

## CC(/C=C/[C@@]1(C)[C@H](C)CCC(=O)[C@@H]1C)=C\Cc1c(O)cc(C)c(C=O)c1O [cylindrol B, 4-dihydroxy-6-methyl-3-[(2E,4E)-3-methyl-5-[(1R,2R,6R)-1,2,6-trimethyl-3-oxocyclohexyl]penta-2,4-dienyl]benzaldehyde]
  clearing of fungus around the well: showed a clearing of fungus around the well
